Source: US20110104057A1, “Novel [F-18]-labelled L-glutamic acid and L-glutamine derivatives (II), their use and processes for their preparation” (BAYER SCHERING PHARMA AKTIENGESELLSCHAFT, priority 2008, published 2011)

Key:
[1] = test system: A549 cells; test: competition cell experiment: inhibition of the uptake of 4R/S-[F-18]F-L-glutamic acid (tracer); assay type: cell-based, human; conditions: for % Tracer uptake: A549 cells, 10 min of incubation with 0.250 MBq of 4R/S-[F-18]F-L-Glu in PBS buffer, competitor concentration 1 mM, control = 100.0; for inhibition of tracer uptake: competitor 1 mM, tracer 4R/S-[F-18]F-L-glutamic acid
Description: The uptake of the glutamic acid derivatives according to the invention into tumour cells was investigated in cell experiments. Here, the uptake of a radiolabelled glutamic acid derivative (4R/S—[F-18]F-L-glutamic acid) was examined in the presence of the compounds according to the invention (competition experiments). The compounds according to the invention were employed in excess (1 mM) over 4R/S—[F-18]F-L-glutamic acid (tracer).
FIG. 1: graphic representation of the inhibition of the cellular uptake of 4R/S—[F-18]F-L-Glu by compounds according to the invention branched in the 4-position in A549 cells (human non-small-cell bronchial carcinoma) after 10 min of incubation.

[2] = test system: rats bearing H460 tumours; test: PET imaging in rats bearing H460 tumours; assay type: in vivo
Description: (§1) (2S,4S)-2-Amino-4-(6-[F-18]fluorohexyl)pentanedioic acid was studied in rats bearing H460 tumours using PET imaging and subsequent organ distribution.
(§2) The highest enrichment at 0.52% of the injected dose per g in the tumour was measured at a time of 100 min after injection. […] Thus, in these organs, an uptake of 0.36% ID/g and 0.20% ID/g, respectively, was observed after 100 min. Uptake into the bones was 0.43% ID/g.
60 min after i.v. administration of 15 MBq of (2S,4S)-2-amino-4-(6-[F-18]fluorohexyl)pentanedioic acid to rats bearing H460 tumours, data acquisition with a PET scanner (Inveon) was started for 30 minutes.
FIG. 3. PET study of 60 to 90 min after injection of (2S,4S)-2-amino-4-(6-[F-18]fluorohexyl)pentanedioic acid into mice bearing H460 tumours (analysis of sections)
FIG. 4. PET study of 60 to 90 min after injection of (2S,4S)-2-amino-4-(6-[F-18]fluorohexyl)pentanedioic acid into mice bearing H460 tumours (whole body imaging)

[3] = test system: rats bearing H460 tumours; test: organ distribution after i.v. administration to animals bearing H460 tumours; assay type: in vivo; conditions: 100 min after i.v. administration of 15 MBq
Description: as §1, §2

[4] = test system: A460 tumour cells; test: cellular uptake of the F-18-labelled compound in tumour cells; assay type: cell-based, human; conditions: for uptake, % of the dose per 100 000 cells: after 30 min of incubation
Source text: Following labelling with F-18, (4S)-4-(6-[F-18]fluorohexyl)-L-Glu was examined in cell experiments with A460 tumour cells (human non-small-cell bronchial carcinoma).

[5] = PET 60-90 min after i.v. administration of 15 MBq

NC(CC(F)C(=O)O)C(=O)O (racemic) [4-(R/S)-fluoro-D/L-Glu]
% Tracer uptake [1]: 16.3%

N[C@@H](C[C@H](CCCCCC[18F])C(=O)O)C(=O)O [(2S,4S)-2-Amino-4-(6-[F-18]fluorohexyl)pentanedioic acid]
PET image analysis: enrichment in the remainder of the body [2, 5]: low enrichment | PET image analysis: uptake into the H460 tumour [2, 5]: high uptake | PET study: uptake or excretion in the kidneys or pancreas ([2]; PET study): transient uptake or excretion | % ID/g Tumour ([3]; H460 tumour): 0.52 % ID/g | % ID/g Blood ([3]; H460 tumour bearing animals): 0.04 % ID/g | % ID/g Bones ([3]; H460 tumour bearing animals): 0.43 % ID/g | % ID/g Kidney ([3]; H460 tumour bearing animals): 0.36 % ID/g | % ID/g Liver ([3]; H460 tumour bearing animals): 0.08 % ID/g | % ID/g Muscle ([3]; H460 tumour bearing animals): 0.02 % ID/g | % ID/g Pancreas ([3]; H460 tumour bearing animals): 0.20 % ID/g | uptake, % of the dose per 100 000 cells ([4]; listed as 4-(6-[F-18]fluorohexyl)-L-Glu): 11.2 % of the dose per 100 000 cells | uptake, % of the dose per 100 000 cells ([4]; listed as (4S)-4-(6-[F-18]fluorohexyl)-L-Glu): 11.2 % of the dose per 100 000 cell | time course of cellular uptake ([4]; tumour cells, F-18-labelled compound): time-dependent cellular uptake

NC(CC(OC1CC(F)C1)C(=O)O)C(=O)O [(4S)-4-(3-fluorocyclobutoxy)-Glu, 2-Amino-4-(3-fluorocyclobutoxy)pentanedioic acid]
% Tracer uptake [1]: 5.7% | inhibition of tracer uptake [1]: > 90%

N[C@@H](C[C@H](CCCF)C(=O)O)C(=O)O [(4S)-4-(3-fluoropropyl)-Glu]
% Tracer uptake [1]: 5.4%

N[C@@H](C[C@H](CCCCCCF)C(=O)O)C(=O)O [(4S)-4-(6-fluorohexyl)-Glu, (2S,4S)-2-Amino-4-(6-fluorohexyl)pentanedioic acid]
% Tracer uptake [1]: 6.3% | inhibition of tracer uptake [1]: 94%

N[C@@H](C[C@H](O)C(=O)O)C(=O)O [(4S)-hydroxy-Glu]
% Tracer uptake [1]: 13.2%

C[C@@H](C[C@H](N)C(=O)O)C(=O)O [(4S)-methyl-Glu]
% Tracer uptake [1]: 7.7%

N[C@@H](CCC(=O)O)C(=O)O [L-Glu, L-configured glutamic acid]
% Tracer uptake [1]: 12.6% | inhibition of tracer uptake [1]: 87%
